# “Also recorded” adds a separate entry of the source.
# Test system: RAW 264.7 cells
# Experiment: LPS-induced NO production (nitrite, Griess reaction) in mouse macrophages
# Type: cell-based
# Conditions: for effect on LPS-induced NO production: varying concentrations, added 1.5 h before, after or simultaneously with LPS
# Protocol: As nitric oxide production is a useful marker of macrophage response to bacterial LPS, the in vitro model system is a valuable tool for examining the modulating effects of sophorolipids on LPS-induced macrophage responses under controlled conditions. Mouse macrophages (RAW 264.7, ATCC) were incubated in the presence of LPS (Salmonella typhimurium, Sigma #6511) (50 ng/ml, an optimal dose for inducing NO production), and varying concentrations of sophorolipids (SL, natural mixture), sophorolipid diethyl ester (E), and corresponding sophorolipid diacetate (K). Sophorolipids were added 1.5 hours before, 1.5 hours after, or simultaneously with LPS. Aliquots of culture supernatants were collected after 5 days and NO content was determined by measuring nitrite (modified Griess reaction). Briefly, triplicate 50 μl aliquots of the culture supernatant were mixed in wells of a 96-well microtiter plate with 100 μl of Griess reagent containing a 1:1 (vol/vol) mixture of 1% (wt/vol) sulfanilamide in 30% acetic acid and 0.5% (wt/vol) of N-(-1-Naphthyl)ethylenediamine dihydrochloride in 60% acetic acid. Chromophore generated by the reaction with nitrite was detected spectrophotometrically (550 nm) using a microtiterplate reader (ELx 800, BioTek Instruments, Winooski, Vt.). The concentration of nitrite was calculated by using calibration with known concentrations of NaNO2.
# This in vitro model system made it possible to examine in detail the effects of sophorolipids on LPS induced NO production as a marker of the acute inflammatory pathway that leads to septic shock in vivo. NO production appeared to depend on the sequence of addition of sophorolipids relative to LPS. The in vitro effects were most pronounced when sophorolipids were introduced either before or simultaneously with LPS.
smiles,measurement,setting,value
"CCOC(=O)CCCCCCC/C=C\CCCCCCC(C)O[C@@H]1O[C@H](COC(C)=O)[C@@H](O)[C@H](O)[C@H]1O[C@@H]1O[C@H](COC(C)=O)[C@@H](O)[C@H](O)[C@H]1O (relative stereo) [K, Ethyl 17-L[(2′-O-β-D glucopyranosyl-β-D-glucopyranosyl)-oxy]-cis-9-octadecenoate 6′,6″-diacetate]",rating of the potency of inhibitory activities on LPS induced NO production,"RAW 264.7 cells, LPS 50 ng/ml",E>SL>K
same,effect on LPS-induced NO production,,inhibited LPS-induced NO production in a dose- and time-dependent manner
"CCOC(=O)CCCCCCC/C=C\CCCCCCC(C)O[C@@H]1O[C@H](CO)[C@@H](O)[C@H](O)[C@H]1O[C@@H]1O[C@H](CO)[C@@H](O)[C@H](O)[C@H]1O (relative stereo) [E, Ethyl 17-L-[(2′-O-β-D-glucopyranosyl-β-D-glucopyranosyl)-oxy]-cis-9-octadecenoate]",rating of the potency of inhibitory activities on LPS induced NO production,"RAW 264.7 cells, LPS 50 ng/ml",E>SL>K; also recorded: least inhibitory and the most variable effects
same,inhibition of LPS-induced NO production (plateau / maximum),"at 25 ng/ml, LPS 50 ng/ml, RAW 264.7 cells, supernatants after 5 days",60-65%
same,effect on LPS-induced NO production,,inhibited LPS-induced NO production in a dose- and time-dependent manner
